Assay results taken from ChEMBL document CHEMBL5291721, “A preclinical secondary pharmacology resource illuminates target-adverse drug reaction associations of marketed drugs” (Nat Commun, 2023).

Experiments:
[1] = molecular target: T1, Gamma-aminobutyric acid receptor subunit alpha-1 (Rattus norvegicus, UniProt P62813); format: functional
[2] = molecular target: Glutamate receptor ionotropic, NMDA 1 (Rattus norvegicus, UniProt P35439)
[3] = molecular target: T2, Neuropeptide Y receptor type 1 (Homo sapiens, UniProt P25929)
T2 sequence (P25929 whole entry): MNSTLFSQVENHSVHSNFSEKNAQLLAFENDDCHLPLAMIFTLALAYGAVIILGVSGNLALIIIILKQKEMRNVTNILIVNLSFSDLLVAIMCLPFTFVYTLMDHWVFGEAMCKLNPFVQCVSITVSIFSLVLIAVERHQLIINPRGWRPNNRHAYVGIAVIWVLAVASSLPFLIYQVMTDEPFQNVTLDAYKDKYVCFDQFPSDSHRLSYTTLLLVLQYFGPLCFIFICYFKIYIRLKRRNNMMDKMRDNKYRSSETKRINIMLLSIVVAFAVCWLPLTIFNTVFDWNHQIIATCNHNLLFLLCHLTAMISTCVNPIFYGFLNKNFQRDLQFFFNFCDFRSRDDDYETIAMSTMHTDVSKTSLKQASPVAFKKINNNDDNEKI

[4] = molecular target: T3, Equilibrative nucleoside transporter 1 (Homo sapiens, UniProt Q99808)
T3 sequence (Q99808 whole entry): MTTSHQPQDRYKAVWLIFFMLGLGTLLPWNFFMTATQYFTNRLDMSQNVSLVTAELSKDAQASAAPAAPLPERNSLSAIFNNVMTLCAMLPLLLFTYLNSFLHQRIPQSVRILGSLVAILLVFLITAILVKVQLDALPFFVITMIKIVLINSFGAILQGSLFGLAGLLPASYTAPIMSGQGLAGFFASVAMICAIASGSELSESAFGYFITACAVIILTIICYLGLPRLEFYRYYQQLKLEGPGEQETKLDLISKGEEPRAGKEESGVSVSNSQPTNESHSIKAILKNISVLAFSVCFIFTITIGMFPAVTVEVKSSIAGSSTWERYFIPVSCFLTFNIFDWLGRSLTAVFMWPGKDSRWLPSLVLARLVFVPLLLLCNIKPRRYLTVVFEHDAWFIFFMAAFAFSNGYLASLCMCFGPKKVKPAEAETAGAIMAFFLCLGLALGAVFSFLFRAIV

[5] = molecular target: T4, Type-1 angiotensin II receptor (Homo sapiens, UniProt P30556)
T4 sequence (P30556 whole entry): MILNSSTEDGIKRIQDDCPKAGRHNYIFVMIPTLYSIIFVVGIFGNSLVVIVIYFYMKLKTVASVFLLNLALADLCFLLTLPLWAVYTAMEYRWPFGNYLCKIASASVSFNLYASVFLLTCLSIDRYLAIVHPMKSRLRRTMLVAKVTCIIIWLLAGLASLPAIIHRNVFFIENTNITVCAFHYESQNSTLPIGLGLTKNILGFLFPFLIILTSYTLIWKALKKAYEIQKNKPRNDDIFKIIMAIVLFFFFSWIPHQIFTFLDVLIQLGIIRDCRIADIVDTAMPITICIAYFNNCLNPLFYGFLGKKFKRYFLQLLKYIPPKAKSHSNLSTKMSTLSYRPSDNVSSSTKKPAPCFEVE

Motilin receptor = Motilin receptor (Homo sapiens, UniProt O43193)
[6] = molecular target: T1, Gamma-aminobutyric acid receptor subunit alpha-1
[7] = molecular target: T5, 5-hydroxytryptamine receptor 1A (Homo sapiens, UniProt P08908); format: functional, cell-based
T5 sequence (P08908 whole entry): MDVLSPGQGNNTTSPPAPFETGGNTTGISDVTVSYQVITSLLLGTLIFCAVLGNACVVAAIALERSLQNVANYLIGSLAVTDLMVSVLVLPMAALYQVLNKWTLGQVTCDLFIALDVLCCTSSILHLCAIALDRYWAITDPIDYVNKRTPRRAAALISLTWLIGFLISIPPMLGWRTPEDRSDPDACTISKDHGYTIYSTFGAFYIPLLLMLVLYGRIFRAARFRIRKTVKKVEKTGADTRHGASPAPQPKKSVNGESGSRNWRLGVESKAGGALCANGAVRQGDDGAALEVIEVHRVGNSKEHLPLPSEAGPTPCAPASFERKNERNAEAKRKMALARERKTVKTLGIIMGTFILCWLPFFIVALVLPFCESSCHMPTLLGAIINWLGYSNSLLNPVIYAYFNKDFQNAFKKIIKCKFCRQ

Histamine H3 receptor = Histamine H3 receptor (Homo sapiens, UniProt Q9Y5N1)
[8] = molecular target: Neuronal acetylcholine receptor subunit alpha-4 (Homo sapiens, UniProt P43681)
D(3) dopamine receptor = D(3) dopamine receptor (Homo sapiens, UniProt P35462)
Histamine H2 receptor = Histamine H2 receptor (Homo sapiens, UniProt P25021); format: functional, cell-based
[9] = molecular target: T6, 5-hydroxytryptamine receptor 3A (Homo sapiens, UniProt P46098); format: functional
T6 sequence (P46098 whole entry): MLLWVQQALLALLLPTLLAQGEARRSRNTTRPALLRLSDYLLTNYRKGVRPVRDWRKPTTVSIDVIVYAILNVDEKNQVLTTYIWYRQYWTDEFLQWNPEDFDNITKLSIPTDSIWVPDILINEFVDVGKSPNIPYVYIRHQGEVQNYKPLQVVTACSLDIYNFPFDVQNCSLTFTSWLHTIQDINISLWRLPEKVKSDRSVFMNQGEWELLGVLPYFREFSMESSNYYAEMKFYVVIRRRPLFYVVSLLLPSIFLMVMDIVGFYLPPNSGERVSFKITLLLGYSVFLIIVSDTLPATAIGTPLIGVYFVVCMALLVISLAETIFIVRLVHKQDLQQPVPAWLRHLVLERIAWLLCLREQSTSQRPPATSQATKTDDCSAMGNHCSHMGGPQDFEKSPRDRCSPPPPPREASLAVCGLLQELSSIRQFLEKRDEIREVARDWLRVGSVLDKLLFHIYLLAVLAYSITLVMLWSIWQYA

[10] = molecular target: Sodium-dependent noradrenaline transporter (Homo sapiens, UniProt P23975)
Histamine H1 receptor = Histamine H1 receptor (Homo sapiens, UniProt P35367)
Further: assay procedure not described here.

Chain of Histamine H2 receptor (P25021 whole entry): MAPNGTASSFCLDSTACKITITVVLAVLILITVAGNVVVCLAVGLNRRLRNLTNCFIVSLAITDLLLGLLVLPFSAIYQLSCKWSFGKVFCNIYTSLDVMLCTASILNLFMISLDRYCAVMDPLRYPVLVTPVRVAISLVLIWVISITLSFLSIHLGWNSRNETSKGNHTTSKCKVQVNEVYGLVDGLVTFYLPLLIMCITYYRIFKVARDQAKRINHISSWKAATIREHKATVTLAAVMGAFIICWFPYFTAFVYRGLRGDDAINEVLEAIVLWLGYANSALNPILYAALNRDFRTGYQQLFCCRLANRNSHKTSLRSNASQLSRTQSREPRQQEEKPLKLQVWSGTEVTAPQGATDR
Chain of Histamine H1 receptor (P35367 whole entry): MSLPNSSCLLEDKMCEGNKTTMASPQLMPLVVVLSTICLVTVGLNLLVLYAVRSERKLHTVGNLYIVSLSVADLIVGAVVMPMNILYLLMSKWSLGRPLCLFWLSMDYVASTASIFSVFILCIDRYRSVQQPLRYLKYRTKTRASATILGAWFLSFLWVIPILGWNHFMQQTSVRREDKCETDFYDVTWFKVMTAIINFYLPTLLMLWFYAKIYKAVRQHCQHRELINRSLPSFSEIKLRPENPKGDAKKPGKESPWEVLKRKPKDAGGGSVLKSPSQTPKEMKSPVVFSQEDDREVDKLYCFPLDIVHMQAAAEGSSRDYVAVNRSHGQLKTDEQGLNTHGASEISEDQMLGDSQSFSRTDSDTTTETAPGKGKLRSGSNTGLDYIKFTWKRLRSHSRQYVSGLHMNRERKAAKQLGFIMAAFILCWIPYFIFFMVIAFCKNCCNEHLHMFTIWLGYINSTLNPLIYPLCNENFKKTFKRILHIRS
Chain of Neuronal acetylcholine receptor subunit alpha-4 (P43681 whole entry): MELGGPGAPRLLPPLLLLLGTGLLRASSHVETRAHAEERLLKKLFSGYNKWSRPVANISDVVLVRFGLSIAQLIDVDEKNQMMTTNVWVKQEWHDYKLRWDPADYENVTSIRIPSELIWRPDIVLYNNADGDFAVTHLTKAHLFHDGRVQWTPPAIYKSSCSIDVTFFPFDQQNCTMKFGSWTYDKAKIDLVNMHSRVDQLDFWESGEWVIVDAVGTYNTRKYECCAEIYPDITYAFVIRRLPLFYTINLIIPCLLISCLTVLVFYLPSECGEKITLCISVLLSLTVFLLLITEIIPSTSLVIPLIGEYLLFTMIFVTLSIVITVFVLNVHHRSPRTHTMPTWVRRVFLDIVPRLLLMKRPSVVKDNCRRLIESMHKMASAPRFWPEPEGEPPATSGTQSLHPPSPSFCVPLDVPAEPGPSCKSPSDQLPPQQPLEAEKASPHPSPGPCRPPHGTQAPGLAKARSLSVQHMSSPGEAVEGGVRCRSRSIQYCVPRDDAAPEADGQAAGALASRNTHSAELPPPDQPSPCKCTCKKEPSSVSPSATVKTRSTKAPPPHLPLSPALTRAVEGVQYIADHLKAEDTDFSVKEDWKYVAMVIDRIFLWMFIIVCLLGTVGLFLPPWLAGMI
Chain of Sodium-dependent noradrenaline transporter (P23975 whole entry): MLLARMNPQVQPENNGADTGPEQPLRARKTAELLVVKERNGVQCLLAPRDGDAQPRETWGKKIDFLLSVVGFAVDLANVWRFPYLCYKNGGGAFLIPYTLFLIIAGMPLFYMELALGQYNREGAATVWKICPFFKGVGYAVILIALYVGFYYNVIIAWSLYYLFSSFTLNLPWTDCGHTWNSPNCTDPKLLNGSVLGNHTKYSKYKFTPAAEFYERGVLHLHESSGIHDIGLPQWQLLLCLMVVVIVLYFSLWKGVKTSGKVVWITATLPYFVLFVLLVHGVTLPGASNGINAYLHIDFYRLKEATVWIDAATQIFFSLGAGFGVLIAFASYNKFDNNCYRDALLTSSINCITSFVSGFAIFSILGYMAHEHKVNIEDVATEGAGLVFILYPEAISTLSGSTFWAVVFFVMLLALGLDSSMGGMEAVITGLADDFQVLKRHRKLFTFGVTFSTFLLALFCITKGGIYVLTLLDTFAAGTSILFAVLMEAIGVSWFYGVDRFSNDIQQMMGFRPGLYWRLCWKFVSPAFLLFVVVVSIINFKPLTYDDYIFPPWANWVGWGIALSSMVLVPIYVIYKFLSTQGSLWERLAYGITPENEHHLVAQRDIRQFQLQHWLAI
Chain of Motilin receptor (O43193 whole entry): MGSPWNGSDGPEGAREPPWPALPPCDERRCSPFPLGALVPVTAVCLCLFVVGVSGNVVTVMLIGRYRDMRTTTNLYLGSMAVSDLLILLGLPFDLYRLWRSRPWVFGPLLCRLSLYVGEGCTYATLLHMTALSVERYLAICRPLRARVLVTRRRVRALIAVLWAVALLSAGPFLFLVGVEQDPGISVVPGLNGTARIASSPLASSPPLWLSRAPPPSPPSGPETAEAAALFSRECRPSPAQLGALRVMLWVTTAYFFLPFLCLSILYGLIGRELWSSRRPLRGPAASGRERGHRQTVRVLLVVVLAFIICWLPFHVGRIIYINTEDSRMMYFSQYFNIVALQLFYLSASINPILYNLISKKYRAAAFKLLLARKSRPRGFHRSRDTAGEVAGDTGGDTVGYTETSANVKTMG
Chain of D(3) dopamine receptor (P35462 whole entry): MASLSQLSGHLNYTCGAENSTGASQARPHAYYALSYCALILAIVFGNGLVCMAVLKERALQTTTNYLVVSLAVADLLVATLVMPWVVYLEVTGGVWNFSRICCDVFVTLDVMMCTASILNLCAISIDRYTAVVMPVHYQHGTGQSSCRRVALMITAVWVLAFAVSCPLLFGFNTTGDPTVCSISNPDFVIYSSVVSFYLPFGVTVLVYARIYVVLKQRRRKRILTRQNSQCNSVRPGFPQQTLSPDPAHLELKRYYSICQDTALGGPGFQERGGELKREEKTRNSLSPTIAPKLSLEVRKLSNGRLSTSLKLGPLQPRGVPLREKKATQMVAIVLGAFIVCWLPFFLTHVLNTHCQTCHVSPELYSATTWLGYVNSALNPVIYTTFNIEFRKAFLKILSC
Chain of Histamine H3 receptor (Q9Y5N1 whole entry): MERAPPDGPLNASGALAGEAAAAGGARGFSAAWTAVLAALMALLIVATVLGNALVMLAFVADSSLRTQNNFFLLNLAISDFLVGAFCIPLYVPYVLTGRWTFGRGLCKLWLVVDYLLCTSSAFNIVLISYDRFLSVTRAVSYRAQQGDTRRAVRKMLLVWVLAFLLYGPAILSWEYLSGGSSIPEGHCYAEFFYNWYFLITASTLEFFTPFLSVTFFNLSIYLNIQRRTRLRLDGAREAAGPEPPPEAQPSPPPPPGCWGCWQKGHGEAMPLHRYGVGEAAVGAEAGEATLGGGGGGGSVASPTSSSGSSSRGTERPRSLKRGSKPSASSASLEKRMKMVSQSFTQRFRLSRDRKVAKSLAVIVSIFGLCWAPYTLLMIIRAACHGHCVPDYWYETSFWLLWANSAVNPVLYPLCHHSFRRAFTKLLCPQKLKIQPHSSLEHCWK
T1 sequence (P62813 whole entry): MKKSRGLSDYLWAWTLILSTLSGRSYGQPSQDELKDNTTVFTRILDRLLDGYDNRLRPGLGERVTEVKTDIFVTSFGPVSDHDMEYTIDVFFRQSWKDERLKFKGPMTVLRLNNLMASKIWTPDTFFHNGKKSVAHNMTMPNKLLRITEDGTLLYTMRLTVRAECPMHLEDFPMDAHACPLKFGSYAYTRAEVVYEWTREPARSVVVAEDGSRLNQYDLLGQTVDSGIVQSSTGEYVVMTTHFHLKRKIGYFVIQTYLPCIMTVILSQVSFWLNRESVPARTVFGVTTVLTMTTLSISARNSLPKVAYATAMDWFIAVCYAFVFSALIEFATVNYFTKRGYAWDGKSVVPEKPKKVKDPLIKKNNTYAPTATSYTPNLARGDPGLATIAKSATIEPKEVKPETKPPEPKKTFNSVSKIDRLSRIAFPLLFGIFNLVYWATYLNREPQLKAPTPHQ

Molecule	AC50 [1] [µM]	AC50 [2] [µM]	AC50 [3] [µM]	AC50 [4] [µM]	AC50 [5] [µM]	AC50 (Motilin receptor) [µM]	AC50 [6] [µM]	AC50 [7] [µM]	AC50 (Histamine H3 receptor) [µM]	AC50 [8] [µM]	AC50 (D(3) dopamine receptor) [µM]	AC50 (Histamine H2 receptor) [µM]	AC50 [9] [µM]	AC50 [10] [µM]	AC50 (Histamine H1 receptor) [µM]
CC(=O)OCC(CCn1cnc2cnc(N)nc21)COC(C)=O [FAMCICLOVIR]	> 10	> 10	> 30	> 30	> 30	> 10	> 10	> 10	> 10	> 10	> 10	> 10	> 30	> 10	
Clc1ccc(C(Cn2ccnc2)OCc2ccc(Sc3ccccc3)cc2)c(Cl)c1 (stereo unspecified) [FENTICONAZOLE]	> 30	> 30	30	> 30	23	23			> 30	> 10	30	> 30	> 30		> 30
COC1=C(OC)C(=O)C(CCCCCCCCCCO)=C(C)C1=O [IDEBENONE]	> 10	> 10	> 30	21.9	> 30	> 10	> 10	> 10	> 10	> 10	> 10	> 10	> 10	> 10	
CC1(C)C(/C=C/C=C/C=C/C=C2\N(CCCCS(=O)(=O)O)c3ccc4ccccc4c3C2(C)C)=[N+](CCCCS(=O)(=O)[O-])c2ccc3ccccc3c21 [INDOCYANINE GREEN ACID FORM]	18	> 30	> 30	11	9	23		> 30		> 30	8.7	24	13	5.2	8.3
Nc1nc2c(c(=O)[nH]1)N(C=O)C(CNc1ccc(C(=O)N[C@@H](CCC(=O)O)C(=O)O)cc1)CN2 (stereo partly specified) [LEUCOVORIN]	> 30	> 30	> 30	> 30	> 30	> 30	> 30	> 30	> 30	> 30	> 30	> 30	> 30	> 30	
[H]/N=C(/N)N[C@H]1[C@H](O)[C@@H](O)[C@H](O[C@@H]2O[C@@H](C)[C@](O)(C=O)[C@H]2O[C@@H]2O[C@@H](CO)[C@H](O)[C@@H](O)[C@@H]2NC)[C@@H](N/C(N)=N\[H])[C@@H]1O [STREPTOMYCIN]	> 30	> 30	> 30	> 30	> 30	> 30	> 30	> 10	> 30	> 30	> 30	> 30	> 30	> 30	
CN1c2ccccc2C(NCCCCCCC(=O)O)c2ccc(Cl)cc2S1(=O)=O (stereo unspecified) [TIANEPTINE]	> 30	> 30	> 30		> 30	> 30	> 30	> 30	> 30	> 30	20	> 30	> 30	> 30	> 30
CC(C)(C)NC[C@H](O)COc1nsnc1N1CCOCC1 [TIMOLOL]	> 30	> 30	> 30	> 30	> 30	> 30	> 30	4.2	> 30	> 30	> 30	> 30	> 30	> 30	
COc1cc2nccc(Oc3ccc(NC(=O)Nc4cc(C)on4)c(Cl)c3)c2cc1OC [TIVOZANIB]				> 3						> 3				> 3	> 30
COLISTIN	> 30	> 30					> 30	> 30			> 30	> 30	> 30		> 30
